Values of other authors as cited in article PMC5643527, “In vivo imaging of lung inflammation with neutrophil-specific ^68Ga nano-radiotracer” (Scientific Reports, 2017).

Legend:
[1] = molecular target: formyl peptide receptor 1 (FPR-1); details: antagonist of FPR-1; read-out: binding affinity (Kd)
Description: A particularly interesting compound is the peptide N-cinnamoyl-F-(D)L-F-(D)L-F (cFLFLF), an antagonist of formyl peptide receptor 1 (FPR-1). The very high binding affinity of cFLFLF (Kd = 2 nM) is the main reason for its use in neutrophil-specific probes for PET and optical fluorescence[7],[8],[10]. However, the high hydrophobicity of cFLFLF produces very poor target-to-background ratios. This serious limitation is the reason why to date the amount of radiotracer reaching the inflammation site is below 1% (expressed as the % of injected dose per mass of the organ)[7],[10]. || Inflammation is a central feature of many clinical conditions and can be broadly classified as acute or chronic. Acute inflammation typically occurs over a timescale of minutes to hours, whereas chronic inflammation can develop over several days to months. The predominant cell type in acute inflammation is the neutrophil, whereas chronic inflammation features a greater variety of cell types.

[2] = molecular target: formyl peptide receptor 1 (Homo sapiens) (UniProt P21462)
Sequence of UniProt P21462 (P21462 whole entry): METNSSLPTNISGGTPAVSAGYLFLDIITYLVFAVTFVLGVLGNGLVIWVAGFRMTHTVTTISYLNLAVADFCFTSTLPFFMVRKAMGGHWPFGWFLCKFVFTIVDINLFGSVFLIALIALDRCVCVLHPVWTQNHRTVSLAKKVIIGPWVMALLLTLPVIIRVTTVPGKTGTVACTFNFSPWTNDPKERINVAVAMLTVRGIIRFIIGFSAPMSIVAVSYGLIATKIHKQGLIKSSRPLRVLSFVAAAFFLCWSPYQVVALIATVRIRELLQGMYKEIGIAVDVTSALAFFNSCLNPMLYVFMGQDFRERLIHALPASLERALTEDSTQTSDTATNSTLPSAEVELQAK

Kd [1]	Kd [2]	Substance
2 nM		N-cinnamoyl-F-(D)L-F-(D)L-F [cFLFLF]
	2 nM	cFLFLF (N-cinnamoyl-F-(D)L-F-(D)L-F)
